Test results published in patent US6977271B1, “Method for inhibition of angiogenesis and vasculogenesis” (Health Research, Inc., priority 2001, dated 2005).

Assays:
[1] = tested on: rat mammary stromal cells (MSC); experiment: In vitro angiogenesis assay: microcapillary network formation on EHS-RBM; assay type: cell-based; conditions: 7 days in culture; for microcapillary network diameter: 75, 100 and 125 μM
Protocol: An in vitro angiogenesis assay, the formation of microcapillary networks by rat mammary stromal vascular precursor cells on the angiogenic substrate, EHS-RBM, was used to compare the isomer- and concentration-dependent effects of mixed CLA isomers and c9,t11- and t10,c12-CLA. Rat mammary stromal cells (MSC) have the ability to act as true vascular precursors and were isolated from mammary glands as described (Zangani et al., 1999).
CLA-containing media was prepared as follows. Briefly, 18.1 μl of 5N NaOH was added to 28.2 μl of CLA (0.9 g/ml, FW 280) in a small Erlenmeyer flask, followed by vortexing, to make the sodium salt. Warm fetal calf serum (10 ml) was added, sonicated 3–4× with brief pulses (5 sec each), and then gassed with nitrogen and the flask sealed with parafilm. The mixture was incubated in a sonicating water bath for 30 min, followed by 5 min incubation in a 50° C. water bath. FBS (11.9 ml) was added to the flask, to bring the CLA to a final 33× concentration (4.125 mM).
Early passage MSC (prior to passage 4) were cultured in a 24 well plate at 2×10^4 cells/well, plated onto 0.4 ml EHS-RBM in the presence of phenol red free F12/DME with 3% FCS, supplemented with 0, 25, 50, 75, 100 or 125 μM CLA. After 7 days in culture, when the cells had formed multiple colonies of three-dimensional networks of tubules (Zangani et al., 1999), capillary networks were photographed, and the extent of network formation was assessed by measuring four planar diameters, at 45° intervals, of the branching colonies. The five largest colonies in each of three wells per group were assessed, for a total of fifteen colonies for each concentration of CLA per experiment. This experiment was replicated twice.

[2] = tested on: mouse epidermal carcinogenesis; conditions: Ha et al, 1987; Belury et al, 1996; cited from earlier work
[3] = tested on: rat mammary carcinogenesis; conditions: Ip et al, 1991, 1994, 1995; cited from earlier work
[4] = tested on: aberrant crypt foci in the rat colon; conditions: Liew et al, 1995; cited from earlier work
[5] = tested on: EHS-RBM pellet (angiogenic challenge); experiment: In vivo EHS-RBM angiogenesis assay; parameters: species or system CD2/F1 mice
Protocol: (§1) To determine the effects of dietary CLA on angiogenesis, the in vivo angiogenesis model of Kibbey et al., 1992 was utilized. Briefly, CD2/F1 female mice were placed on diets with or without CLA at 8 or 12 weeks of age, with 10–12 mice per group per experiment. After 6 weeks of diet, mice were given bilateral injections of EHS-RBM containing 1.25 μg/ml bFGF and 60 μg/ml heparan sulfate using a 25-gauge needle, into the region of mammary gland four. Mice were sacrificed 7 days after injection. Blood was collected from the trunk for preparation of plasma for analysis of VEGF levels. Pellets and adjacent normal mammary gland tissue were removed and formalin fixed for paraffin embedding. This experiment was repeated four times.
Microsope visual fields, visualized with a 20× objective were analyzed for cellular invasion, and with a 40× objective for the presence of functional blood vessels, for a final magnification of 200 or 400×, respectively. The ability of dietary CLA to affect cellular invasion into the EHS-RBM pellet was analyzed on H&E-stained paraffin sections by counting the number of nuclei per field, excluding all acellular regions that remained uninvaded. A total of 68 fields were assessed in 13 pellets from mice on control diets, 75 fields were assessed from 9 pellets from mice on 1% CLA diets, and 62 fields analyzed from 13 pellets, obtained from mice on 2% CLA diets. We analyzed all pellets retrieved from the animals; there was a decline in the number of visible pellets in CLA-fed animals.
Functional angiogenesis was quantified by determining the number of cell-lined structures with patent lumen and red blood cells. H&E stained paraffin sections were visualized by epifluorescent illumination; red blood cells are strongly fluorescent due to their intensely eosinophilic cytoplasm. This intensity is easily distinguished from the dimly fluorescent nucleated cells. The relative dimness of nucleated cells may be partly due to the presence of nuclear and/or cytoplasmic hematoxylin, which quenches fluorescence. A total of 162 fields were analyzed from 21 slides from control diet animals, 158 fields were analyzed from 21 slides from 1% CLA diet animals, and 174 fields were analyzed from 13 slides from 2% CLA diet animals.

[6] = tested on: VEGF-A; experiment: Serum VEGF analysis by ELISA after EHS-RBM challenge; assay type: in vivo, CD2/F1 mice; conditions: for reduction of average serum VEGF levels: 7 days after angiogenic challenge, relative to control diet
Protocol: as §1
Serum VEGF (VEGF-A) levels were assessed by ELISA using a commercial kit (Quantikine M mouse VEGF ELISA, R&D Systems), as per the manufacturer's instructions. VEGF levels were assessed in sera from mice which had been on diet for a total of 7 weeks, and had received EHS-RBM angiogenic challenge 1 week prior to sacrifice.

[7] = tested on: MDA-MB468 breast cancer cells and DU-145 prostatic tumor cells; conditions: MDA-MB468 and DU-145 cells in SCID mice; Visonneau et al, 1997; Cesano et al, 1998; cited from earlier work
[8] = tested on: Flk-1 (VEGF receptor 2); experiment: Western blot of Flk-1 in whole mammary gland lysates; assay type: in vivo, CD2/F1 mice
Protocol: (§2) Alternately, for analysis of whole mammary gland levels of VEGF and Flk-1, 10 mice per group were placed on diet at 8 weeks of age, and mice were sacrificed 7 weeks after diet initiation. Mammary glands were snap-frozen in liquid nitrogen to be utilized for preparation of whole gland lysates.
Whole mammary glands (gland four) were dissected after sacrifice from mice fed control- or CLA-supplemented diets, snap-frozen in liquid nitrogen and stored at −80° C. Lysates were prepared by pulverizing the frozen glands in a liquid nitrogen-cooled metal pulverizer to a fine powder. The powder was weighed in a pre-tared microfuge tube, and resuspended in ice-cold Triton X-100 lysis buffer (50 mM Tris, pH7.5 at room temperature, 250 mM NaCl, 5 mM EDTA, 0.1% (v/v) Triton X-100, supplemented with 0.1 mM PMSF, 20 ng/ml leupeptin and 100 ng/ml soybean trypsin inhibitor) using 2 ml per gram of tissue. The powder was then homogenized in an ice-cold microfuge tube, using 10–15 strokes of a fitted glass homogenizer. Samples were incubated on ice for 30 minutes, and then centrifuged for 10 min at 4° C. at 8,000×g. The supernatants were then aliquoted and frozen at −20° C. An aliquot of the sample was used to determine protein concentration, using the Bio-Rad protein assay. Immediately before electrophoresis, samples were prepared for loading by adding 4× Laemmli SDS-sample buffer at a 1:3 ratio to the thawed sample. The sample was then boiled, sonicated, and centrifuged for 10 min at 4° C., 8,000×g in a microfuge, before loading supernatant. Lysates from 7 mice per dietary group were analyzed.
Lysates were loaded using equal protein per well, and proteins were separated on a 7.5% reducing SDS-gel according to the method of Laemmli well known in the art. Proteins were transferred to nitrocellulose using a Bio-Rad Transblot Apparatus (Hercules, Calif.). Blots were blocked with Blotto (TBS (10 mM Tris, pH 8.0, 150 mM NaCl), 0.5% Tween 20, 5% (w/v) non-fat dry milk). All antibody incubations and subsequent rinses were performed in Blotto, with vigorous rocking. Rabbit anti-VEGF-A was used at a final concentration of 2 μg/ml, and rabbit anti-Flk-1 was used at a final concentration of 1 μg/ml. To control for variability in loading, the same blots used for VEGF were stripped and probed for Flk-1. The blots were then stripped again and probed with mouse antisera to hsc70, at a 1:20,000 final concentration. Hsc70 was used as a control for cellular protein loading of western blots, as a constitutively expressed cytoplasmic housekeeping protein. […] Specific antibody-reactive bands were quantified by densitometry using a Model 300A Scanning Laser Densitometer and ImageQuant software (Molecular Dynamics).

[9] = tested on: mouse forestomach neoplasia; conditions: Ha et al, 1990; cited from earlier work
[10] = tested on: VEGF; experiment: Western blot of VEGF in whole mammary gland lysates; assay type: in vivo, CD2/F1 mice; conditions: dietary CLA 7 weeks, no angiogenic challenge, dose-dependent
Protocol: as §2
Whole mammary glands (gland four) were dissected after sacrifice from mice fed control- or CLA-supplemented diets, snap-frozen in liquid nitrogen and stored at −80° C. Lysates were prepared by pulverizing the frozen glands in a liquid nitrogen-cooled metal pulverizer to a fine powder. The powder was weighed in a pre-tared microfuge tube, and resuspended in ice-cold Triton X-100 lysis buffer (50 mM Tris, pH7.5 at room temperature, 250 mM NaCl, 5 mM EDTA, 0.1% (v/v) Triton X-100, supplemented with 0.1 mM PMSF, 20 ng/ml leupeptin and 100 ng/ml soybean trypsin inhibitor) using 2 ml per gram of tissue. The powder was then homogenized in an ice-cold microfuge tube, using 10–15 strokes of a fitted glass homogenizer. […] Lysates from 7 mice per dietary group were analyzed.
Lysates were loaded using equal protein per well, and proteins were separated on a 7.5% reducing SDS-gel according to the method of Laemmli well known in the art. […] Specific antibody-reactive bands were quantified by densitometry using a Model 300A Scanning Laser Densitometer and ImageQuant software (Molecular Dynamics).

## CCCCCC/C=C/C=C\CCCCCCCC(=O)O [c9,t11-CLA, cis-9, trans-11 CLA]
[1]
  microcapillary network diameter: significantly decreased

## CCCCC/C=C\C=C\CCCCCCCCC(=O)O [t10,c12-CLA]
[1]; 100 and 125 μM
  microcapillary network size: significant decreased

## Conjugated Linoleic Acid [CLA]
[2]
  DMBA-induced mouse epidermal carcinogenesis: inhibit
[3]
  DMBA- and NMU-induced rat mammary carcinogenesis: inhibit
[4]
  incidence of aberrant crypt foci in the rat colon: inhibit
[5]; 1% CLA diet vs control diet
  functional angiogenesis within the EHS pellet (structures containing red blood cells): significantly decreased
[5]; 2% CLA diet vs control diet
  functional angiogenesis within the EHS pellet (structures containing red blood cells): significantly decreased
[5]; CLA-fed mice (1% or 2% CLA diet) vs control diet, 7 days after EHS-RBM injection
  cellular invasion, number of nuclei per field in the invaded regions of the pellet: significantly decreased
[5]; CLA-fed vs control mice, data not shown
  average measured depth of cellular infiltration of the pellet: not different
[6]; 1% CLA diet for 7 weeks
  reduction of average serum VEGF levels: approximately 40%
[6]; 2% CLA diet for 7 weeks
  reduction of average serum VEGF levels: approximately 40%
[6]; data not shown
  systemic effect on serum VEGF with or without angiogenic challenge: only significant in mice stimulated by angiogenic challenge
[1]
  microcapillary network diameter: significantly decreased
[1]; MSC on EHS-RBM
  total number of colonies and size/extent of their branching: inhibited
[7]
  size and metastatic spread of human tumor cells: reduce
[8]; animals fed 2% CLA
  expression of Flk-1 protein on western blot: uniformly low expression
[8]; dietary CLA, dose-dependent
  mammary gland Flk-1 60 kDa band, scanning densitometry: statistically significant decrease
  mammary gland Flk-1 200 kDa band, scanning densitometry: statistically significant decrease
[8]; mice fed 1% CLA
  expression of Flk-1 protein on western blot: variable expression
[9]
  BP-induced mouse forestomach neoplasia: inhibit
[10]
  mammary gland VEGF 28 kDa band, densitometry normalized to hsc70: significantly decreased
  mammary gland VEGF 54 kDa band, densitometry normalized to hsc70: significantly decreased
